Target: T1, HDAC6 (Homo sapiens, UniProt Q9UBN7)
T1 construct: endogenous in cells; host or cells: MM1S (ATCC CRL-2974)
T1 sequence (Q9UBN7 1-1215): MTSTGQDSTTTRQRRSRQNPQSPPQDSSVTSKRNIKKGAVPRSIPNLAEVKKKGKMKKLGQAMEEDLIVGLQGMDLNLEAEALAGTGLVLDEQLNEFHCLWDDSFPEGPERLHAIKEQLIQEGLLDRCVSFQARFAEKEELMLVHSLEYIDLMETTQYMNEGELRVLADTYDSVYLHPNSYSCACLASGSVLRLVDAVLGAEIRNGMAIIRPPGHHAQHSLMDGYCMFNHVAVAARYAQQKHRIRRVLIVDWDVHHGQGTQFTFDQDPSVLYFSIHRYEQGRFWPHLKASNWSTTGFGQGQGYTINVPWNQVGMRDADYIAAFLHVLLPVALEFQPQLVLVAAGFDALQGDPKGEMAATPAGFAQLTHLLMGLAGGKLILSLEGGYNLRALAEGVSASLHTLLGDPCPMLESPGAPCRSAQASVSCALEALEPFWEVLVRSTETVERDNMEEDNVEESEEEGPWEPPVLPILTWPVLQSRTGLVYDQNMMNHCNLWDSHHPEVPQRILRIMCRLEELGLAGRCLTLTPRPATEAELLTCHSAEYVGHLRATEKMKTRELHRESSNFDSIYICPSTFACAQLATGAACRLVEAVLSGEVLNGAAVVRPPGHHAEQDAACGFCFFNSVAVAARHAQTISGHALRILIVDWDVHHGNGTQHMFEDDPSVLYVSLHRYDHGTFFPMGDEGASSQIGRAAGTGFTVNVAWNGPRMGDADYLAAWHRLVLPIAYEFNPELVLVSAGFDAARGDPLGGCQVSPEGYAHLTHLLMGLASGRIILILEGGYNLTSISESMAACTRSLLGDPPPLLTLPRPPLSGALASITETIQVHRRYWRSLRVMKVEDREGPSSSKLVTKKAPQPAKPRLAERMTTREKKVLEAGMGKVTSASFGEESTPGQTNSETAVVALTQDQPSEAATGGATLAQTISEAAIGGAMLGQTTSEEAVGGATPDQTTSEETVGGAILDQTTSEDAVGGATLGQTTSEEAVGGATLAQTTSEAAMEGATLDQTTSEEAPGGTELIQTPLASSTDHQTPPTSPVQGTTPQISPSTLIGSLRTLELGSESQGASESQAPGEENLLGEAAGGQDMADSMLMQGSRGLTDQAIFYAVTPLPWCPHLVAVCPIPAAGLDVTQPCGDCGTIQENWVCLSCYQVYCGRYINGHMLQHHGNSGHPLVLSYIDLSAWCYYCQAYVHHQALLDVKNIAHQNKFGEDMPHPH
Experiment: In-cell ELISA of HDAC6 protein level in MM1S cells
Type: cell-based
Details: 6 h, 100% minus mean (± SD) relative HDAC6 expression; for inhibition at 0.01 µM / inhibition at 0.1 µM: MM1.S; for inhibition at 0.01 µM: n=3, read-out: Degradation (%) 10 nM; for inhibition at 0.1 µM: n=3, read-out: Degradation (%) 100 nM
Protocol: FIG. 9 is a histogram depicting the results of screening of compounds for HDAC6 degradation activity by in-cell ELISA. MM1S cells were treated with compounds at 100 nM (blue bars) or 10 nM (red bars) for 6 h. Data was normalized to vehicle (DMSO)-treated group and the bar graph represents as mean of relative HDAC6 protein level (n=3) with ±SD as error bar. Statistical significance was analyzed by one-way ANOVA. Not significant (ns) P>0.05, *P≤0.05, **P≤0.01, ***P≤0.001, ****P≤0.0001.
FIG. 11 is a graph depicting dose response of selected degrader candidates. MM1S cells were treated for 6 h and analyzed by in-cell ELISA. Data was normalized to vehicle (DMSO)-treated group and dot plot represented as mean relative expression (n=3) with ±SD as error bar. Nonlinear fitting of inhibitor concentration vs. response (three parameters) was generated by GraphPad Prism with R2 from 0.97 to 0.99.
FIG. 15 is a histogram depicting relative HDAC6 expression as a function of linker length for compounds 3a through 3k as described in the Examples section, Part 2. Human MM1S cells were treated with 100 nM degraders for 6 hours and analyzed by in-cell ELISA assay.
FIG. 17 is a dose-response curve for degraders 3j (n=1), 3k (n=12) and 2, at concentrations from 1 nM to 300 nM for 4 h in MM1S. See the Examples, Part 2.
To screen the new series of degraders, an in-cell ELISA assay was developed and validated. The compounds were treated at 100 nM and 10 nM in MM1S cells for 6 h. Resulting cells were then fixed and analyzed by in-cell ELISA. […] Degraders including 1 at 100 nM degraded 73.5% to 85.0% of HDAC6 with minor difference. At 10 nM concentration of compounds, obvious structure-activity-relationship (SAR) was observed. […] For example, 12d, 12h, 12i, 12o and 12p all achieved about 70% degradation. Among the C4-linked series, 12d with medium length linker (5+1) achieved most degradation in sub-series 12a-e (m=1). […] Among C5-linked series, the potency of sub-series 12l-p (m=1) increased with the linker length. […] It appeared that both the distance and linking positions contributed to the degradation efficiency. The rigid triazole ring in the middle of the linker likely modulated the plasticity of degrader-bridged ternary complex.
The amount of cellular HDAC6 was measured in response to concentrations of compounds from 0.1 nM to 1 μM. […] The new degraders had single-digit nanomolar DC50, which was about 3 to 5 fold of improvement from 9.12 nM of degrader 1. […] As discussed above, most PROTACs were designed to avoid degrading other proteins except the targeted POIs. However, in these studies, it was hypothesized that HDAC6 degraders with IKZF degradation will have enhanced anti-proliferation effect MM1S cells.
MM1S cells were harvested and plated with 5×10^5 cells in 100 μL media per well 96-wells plate. After overnight seeding, 25 μL media containing 5× dosing concentration of the compounds or vehicle was added to each well. After 6-hour treatment at 37° C. in a humidified 5% CO2 atmosphere, cells were fixed by adding 125 μL 8% formaldehyde in TBS buffer (137 mM NaCl, 25 mM Tris, 2.7 mM potassium chloride, pH 7.6) and incubated at room temperature (RT) for 15 minutes. Removal of fixing solution was followed by once rinse and twice washes with TBS-T washing buffer (137 mM NaCl, 20 mM Tris, 0.1% Tween, pH 7.6). Cells were then permeabilized by adding 100 μL 0.1% Triton-X in TBS and incubated at RT for 15 minutes. Removal of permeabilizing solution was followed by once rinse and once wash with TBS-T. Cellular endogenous peroxidases were quenched by adding 100 μL 1% H2O2 in TBS and incubation at RT for 20 minutes. Removal of quenching solution was followed by once rinse and once wash with TBS-T. Non-specific binding sites were blocked by adding […] 5% BSA in TBS-T (with 0.02% NaN3) and incubation at 4° C. overnight. […]

CCCCN(Cc1ccc(C(=O)NO)cc1)C(=O)Nc1ccc(OCCCCCCn2cc(CNc3cccc4c3C(=O)N(C3CCC(=O)NC3=O)C4=O)nn2)cc1 (centres unmarked) [Compound 12e, 4-((1-butyl-3-(4-((6-(4-(((2-(2,6-dioxopiperidin-3-yl)-1,3-dioxoisoindolin-4-yl)amino)methyl)-1H-1,2,3-triazol-1-yl)hexyl)oxy)phenyl)ureido)methyl)-N-hydroxybenzamide]
inhibition at 0.01 µM (10 nM): 66.1 ± 1.1%
inhibition at 0.1 µM (100 nM): 77.8 ± 1.7%

CCCCN(Cc1ccc(C(=O)NO)cc1)C(=O)Nc1ccc(OCCCCn2cc(CNc3cccc4c3C(=O)N(C3CCC(=O)NC3=O)C4=O)nn2)cc1 (centres unmarked) [Compound 12n, 4-((1-butyl-3-(4-(4-(4-(((2-(2,6-dioxopiperidin-3-yl)-1,3-dioxoisoindolin-4-yl)amino)methyl)-1H-1,2,3-triazol-1-yl)butoxy)phenyl)ureido)methyl)-N-hydroxybenzamide]
Degradation (%) 10 nM (10 nM, n=3): 63.3 ± 0.8%
Degradation (%) 100 nM (100 nM, n=3): 80.9 ± 0.4%

CCCCN(Cc1ccc(C(=O)NO)cc1)C(=O)Nc1ccc(OCCCCCCn2cc(CNc3ccc4c(c3)C(=O)N(C3CCC(=O)NC3=O)C4=O)nn2)cc1 (centres unmarked) [Compound 12p, 4-((1-butyl-3-(4-((6-(4-(((2-(2,6-dioxopiperidin-3-yl)-1,3-dioxoisoindolin-5-yl)amino)methyl)-1H-1,2,3-triazol-1-yl)hexyl)oxy)phenyl)ureido)methyl)-N-hydroxybenzamide]
inhibition at 0.01 µM (10 nM): ~70%
inhibition at 0.1 µM (100 nM): 83.5 ± 0.5%

CCCCN(Cc1ccc(C(=O)NO)cc1)C(=O)Nc1ccc(OCCCCn2cc(CNc3cccc4c3C(=O)N(C3CCC(=O)NC3=O)C4=O)nn2)cc1 (centres unmarked) [Compound 12c, 4-((1-butyl-3-(4-(4-(4-(((2-(2,6-dioxopiperidin-3-yl)-1,3-dioxoisoindolin-4-yl)amino)methyl)-1H-1,2,3-triazol-1-yl)butoxy)phenyl)ureido)methyl)-N-hydroxybenzamide]
inhibition at 0.01 µM (10 nM): 64.3 ± 3.2%
inhibition at 0.1 µM (100 nM): 85 ± 1.2%

CCCCN(Cc1ccc(C(=O)NO)cc1)C(=O)Nc1ccc(OCCCCn2cc(CCCNc3cccc4c3C(=O)N(C3CCC(=O)NC3=O)C4=O)nn2)cc1 (centres unmarked) [Compound 12k, 4-((1-butyl-3-(4-(4-(4-(3-((2-(2,6-dioxopiperidin-3-yl)-1,3-dioxoisoindolin-4-yl)amino)propyl)-1H-1,2,3-triazol-1-yl)butoxy)phenyl)ureido)methyl)-N-hydroxybenzamide]
inhibition at 0.01 µM (10 nM): 50.9 ± 2.2%
inhibition at 0.1 µM (100 nM): 75.7 ± 0.8%

CCCCN(Cc1ccc(C(=O)NO)cc1)C(=O)Nc1ccc(OCCCn2cc(CNc3cccc4c3C(=O)N(C3CCC(=O)NC3=O)C4=O)nn2)cc1 (centres unmarked) [Compound 12b, 4-((1-butyl-3-(4-(3-(4-(((2-(2,6-dioxopiperidin-3-yl)-1,3-dioxoisoindolin-4-yl)amino)methyl)-1H-1,2,3-triazol-1-yl)propoxy)phenyl)ureido)methyl)-N-hydroxybenzamide]
inhibition at 0.01 µM (10 nM): 67.3 ± 0.8%
inhibition at 0.1 µM (100 nM): 84.1%

CCCCN(Cc1ccc(C(=O)NO)cc1)C(=O)Nc1ccc(OCCn2cc(CCCNc3ccc4c(c3)C(=O)N(C3CCC(=O)NC3=O)C4=O)nn2)cc1 (centres unmarked) [Compound 12q, 4-((1-butyl-3-(4-(2-(4-(3-((2-(2,6-dioxopiperidin-3-yl)-1,3-dioxoisoindolin-5-yl)amino)propyl)-1H-1,2,3-triazol-1-yl)ethoxy)phenyl)ureido)methyl)-N-hydroxybenzamide]
inhibition at 0.01 µM (10 nM): 47.2 ± 4.8%
inhibition at 0.1 µM (100 nM): 80.4 ± 0.3%

CCCCN(Cc1ccc(C(=O)NO)cc1)C(=O)Nc1ccc(OCCCn2cc(CCCNc3ccc4c(c3)C(=O)N(C3CCC(=O)NC3=O)C4=O)nn2)cc1 (centres unmarked) [Compound 12r, 4-((1-butyl-3-(4-(3-(4-(3-((2-(2,6-dioxopiperidin-3-yl)-1,3-dioxoisoindolin-5-yl)amino)propyl)-1H-1,2,3-triazol-1-yl)propoxy)phenyl)ureido)methyl)-N-hydroxybenzamide]
inhibition at 0.01 µM (10 nM): 60.9 ± 0.4%
inhibition at 0.1 µM (100 nM): 81.9 ± 0.4%

CCCCN(Cc1ccc(C(=O)NO)cc1)C(=O)Nc1ccc(OCCCn2cc(CCCNc3cccc4c3C(=O)N(C3CCC(=O)NC3=O)C4=O)nn2)cc1 (centres unmarked) [Compound 12j, 4-((1-butyl-3-(4-(3-(4-(3-((2-(2,6-dioxopiperidin-3-yl)-1,3-dioxoisoindolin-4-yl)amino)propyl)-1H-1,2,3-triazol-1-yl)propoxy)phenyl)ureido)methyl)-N-hydroxybenzamide]
inhibition at 0.01 µM (10 nM): 45.6 ± 1.6%
inhibition at 0.1 µM (100 nM): 77.3 ± 1.5%

CCCCN(Cc1ccc(C(=O)NO)cc1)C(=O)Nc1ccc(OCCCCCn2cc(CNc3ccc4c(c3)C(=O)N(C3CCC(=O)NC3=O)C4=O)nn2)cc1 (centres unmarked) [Compound 12o, 4-((1-butyl-3-(4-((5-(4-(((2-(2,6-dioxopiperidin-3-yl)-1,3-dioxoisoindolin-5-yl)amino)methyl)-1H-1,2,3-triazol-1-yl)pentyl)oxy)phenyl)ureido)methyl)-N-hydroxybenzamide]
inhibition at 0.01 µM (10 nM): ~70%
inhibition at 0.1 µM (100 nM): 84.7 ± 1%

From patent publication US11059815B2, “Synthesis of small molecule histone deacetylase 6 degraders, compounds formed thereby, and pharmaceutical compositions containing them” (Wisconsin Alumni Research Foundation, priority 2018, dated 2021)
